The values that follow come from patent US20230111310A1, “CARBOXYLIC ACID DERIVATIVE-SUBSTITUTED IMINO ARYL COMPOUND, PREPARATION METHOD THEREFOR, HERBICIDAL COMPOSITION AND USE THEREOF” (Qingdao Kingagroot Chemical Compound Co., Ltd., priority 2020, published 2023).

What all share (assay): Weeding effect in post-emergence stage
Holding throughout (format): in vivo

In one assay the test system is Abutilon theophrasti. The settings on record: for Weeding effect in post-emergence stage, Abutilon theophrasti (level): fresh weight control rate level; for Weeding effect in post-emergence stage, Abutilon theophrasti: level of fresh weight growth control rate. In a few lines: (§1)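 Doses of 500, 250, 125, 60, 30, 15 and 7.5 g/ha, with methyl oleate synergist (1.5 liter/ha) and Tween 80 from acetone solution, applied by spray tower post-emergence (2–3 leaf stage). Weed control scored after 3 further greenhouse weeks, averaged over triplicates.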

A further assay concerns Digitaria sanguinalis. The settings on record: for Weeding effect in post-emergence stage, Digitaria sanguinalis (level): fresh weight control rate level; for Weeding effect in post-emergence stage, Digitaria sanguinalis: level of fresh weight growth control rate. In short, it runs like this:
as §1

Another assay has as its system Setaria viridis. The settings on record: for Weeding effect in post-emergence stage, Setaria viridis (level): fresh weight control rate level; for Weeding effect in post-emergence stage, Setaria viridis: level of fresh weight growth control rate. In short, it runs like this: as §1
The subject of a further assay is Eleusine indica. The settings on record: for Weeding effect in post-emergence stage, Eleusine indica (level): fresh weight control rate level; for Weeding effect in post-emergence stage, Eleusine indica: level of fresh weight growth control rate. In short, it runs like this:
as §1

The test system of another assay is Alopecurus japonicus. The settings on record: for Weeding effect in post-emergence stage, Alopecurus japonicus (level): fresh weight control rate level; for Weeding effect in post-emergence stage, Alopecurus japonicus: level of fresh weight growth control rate. In a few lines:
as §1

For another assay, the system named is Echinochloa crusgalli. The settings on record: for Weeding effect in post-emergence stage, Echinochloa crusgalli (level): fresh weight control rate level; for Weeding effect in post-emergence stage, Echinochloa crusgalli: level of fresh weight growth control rate. In short, it runs like this: as §1

In the case of `CCN(CC)C(=O)[C@@H](C)O/N=C/c1cc(-n2c(=O)cc(C(F)(F)F)n(C)c2=O)c(F)cc1Cl` [502(R)], in the assay with Abutilon theophrasti (Dose 15 g/ha), the “Weeding effect in post-emergence stage, Abutilon theophrasti (level)” value (“Weeding effect … Abutilon theophrasti (level)” below) is given as 5 (Level 5: growth control rate is above 85%). Besides, the “Weeding effect in post-emergence stage, Digitaria sanguinalis (level)” value (shortened to “Weeding effect … Digitaria sanguinalis (level)”) in the assay on Digitaria sanguinalis (Dose 15 g/ha) was 5 (Level 5: growth control rate is above 85%). Besides, the “Weeding effect in post-emergence stage, Setaria viridis (level)” value (from here on “Weeding effect … Setaria viridis (level)”) in the assay on Setaria viridis (Dose 15 g/ha) was 5 (Level 5: growth control rate is above 85%). Moreover, the “Weeding effect in post-emergence stage, Eleusine indica (level)” value (shortened to “Weeding effect … Eleusine indica (level)”) with Eleusine indica (Dose 15 g/ha) is listed as 5 (Level 5: growth control rate is above 85%). Moreover, the “Weeding effect in post-emergence stage, Alopecurus japonicus (level)” value (“Weeding effect … Alopecurus japonicus (level)” below) in the assay with Alopecurus japonicus (Dose 15 g/ha) is listed as 5 (Level 5: growth control rate is above 85%). In addition, the “Weeding effect in post-emergence stage, Echinochloa crusgalli (level)” value (shortened to “Weeding effect … Echinochloa crusgalli (level)”) in the assay on Echinochloa crusgalli (Dose 15 g/ha) is given as 5 (Level 5: growth control rate is above 85%).
For `C[C@@H](O/N=C/c1cc(-n2c(=O)cc(C(F)(F)F)n(C)c2=O)c(F)cc1Cl)C(=O)NS(=O)(=O)CCl` [503(R)], the “Weeding effect … Abutilon theophrasti (level)” value with Abutilon theophrasti (Dose 15 g/ha) is 5 (Level 5: growth control rate is above 85%). For the same compound, the “Weeding effect … Digitaria sanguinalis (level)” value with Digitaria sanguinalis (Dose 15 g/ha) is listed as 5 (Level 5: growth control rate is above 85%). Further, in the assay with Setaria viridis (Dose 15 g/ha), the “Weeding effect … Setaria viridis (level)” value is 5 (Level 5: growth control rate is above 85%). Further, the “Weeding effect … Eleusine indica (level)” value in the assay on Eleusine indica (Dose 15 g/ha) is 5 (Level 5: growth control rate is above 85%). Further, the “Weeding effect … Alopecurus japonicus (level)” value in the assay on Alopecurus japonicus (Dose 15 g/ha) is given as 5 (Level 5: growth control rate is above 85%). Moreover, the “Weeding effect … Echinochloa crusgalli (level)” value in the assay on Echinochloa crusgalli (Dose 15 g/ha) is recorded as 5 (Level 5: growth control rate is above 85%).
In the case of `COC(=O)C(C)ON=Cc1nc(-n2c(=O)cc(C(F)(F)F)n(C)c2=O)c(F)cc1Cl` [504(R)], the “Weeding effect … Abutilon theophrasti (level)” value in the assay on Abutilon theophrasti (Dose 15 g/ha) is listed as 5 (Level 5: growth control rate is above 85%). Moreover, the “Weeding effect … Digitaria sanguinalis (level)” value in the assay on Digitaria sanguinalis (Dose 15 g/ha) was 5 (Level 5: growth control rate is above 85%). Moreover, the “Weeding effect … Setaria viridis (level)” value in the assay on Setaria viridis (Dose 15 g/ha) is 5 (Level 5: growth control rate is above 85%). Further, in the assay with Eleusine indica (Dose 15 g/ha), the “Weeding effect … Eleusine indica (level)” value is reported as 5 (Level 5: growth control rate is above 85%). Further, the “Weeding effect … Alopecurus japonicus (level)” value in the assay with Alopecurus japonicus (Dose 15 g/ha) is reported as 5 (Level 5: growth control rate is above 85%). For the same compound, the “Weeding effect … Echinochloa crusgalli (level)” value in the assay on Echinochloa crusgalli (Dose 15 g/ha) is given as 5 (Level 5: growth control rate is above 85%).
As to `COC(=O)[C@@H](C)S/N=C/c1cc(-n2c(=O)cc(C(F)(F)F)n(C)c2=O)c(F)cc1Cl` [730(R)], in the assay on Abutilon theophrasti (Dose 15 g/ha), the “Weeding effect … Abutilon theophrasti (level)” value was 5 (Level 5: growth control rate is above 85%). For the same compound, the “Weeding effect … Digitaria sanguinalis (level)” value in the assay on Digitaria sanguinalis (Dose 15 g/ha) is reported as 5 (Level 5: growth control rate is above 85%). In addition, in the assay on Setaria viridis (Dose 15 g/ha), the “Weeding effect … Setaria viridis (level)” value was 5 (Level 5: growth control rate is above 85%). Further, in the assay on Eleusine indica (Dose 15 g/ha), the “Weeding effect … Eleusine indica (level)” value is 5 (Level 5: growth control rate is above 85%). In addition, the “Weeding effect … Alopecurus japonicus (level)” value in the assay on Alopecurus japonicus (Dose 15 g/ha) is 5 (Level 5: growth control rate is above 85%). Besides, the “Weeding effect … Echinochloa crusgalli (level)” value in the assay on Echinochloa crusgalli (Dose 15 g/ha) is 5 (Level 5: growth control rate is above 85%).
For `COC(=O)[C@@H](C)N/N=C/c1cc(-n2c(=O)cc(C(F)(F)F)n(C)c2=O)c(F)cc1Cl` [919(R)], the “Weeding effect … Abutilon theophrasti (level)” value in the assay on Abutilon theophrasti (Dose 30 g/ha) is given as 5 (Level 5: growth control rate is above 85%). Besides, the “Weeding effect … Digitaria sanguinalis (level)” value in the assay on Digitaria sanguinalis (Dose 30 g/ha) is 5 (Level 5: growth control rate is above 85%). Further, the “Weeding effect … Setaria viridis (level)” value with Setaria viridis (Dose 30 g/ha) is reported as 5 (Level 5: growth control rate is above 85%). The “Weeding effect … Eleusine indica (level)” value with Eleusine indica (Dose 30 g/ha) is listed as 5 (Level 5: growth control rate is above 85%). Moreover, the “Weeding effect … Alopecurus japonicus (level)” value with Alopecurus japonicus (Dose 30 g/ha) is 5 (Level 5: growth control rate is above 85%). The “Weeding effect … Echinochloa crusgalli (level)” value in the assay with Echinochloa crusgalli (Dose 30 g/ha) is listed as 5 (Level 5: growth control rate is above 85%).
As to `CC(C)=NOC(=O)C(C)O/N=C/c1cc(-n2c(=O)n(C)c(=S)n(C)c2=O)c(F)cc1Cl` (stereo not drawn) [Compound 20], the “Weeding effect in post-emergence stage, Abutilon theophrasti” value in the assay with Abutilon theophrasti (Dose 15 g/ha) was 5 (Level 5: growth control rate is above 85%). For the same compound, the “Weeding effect in post-emergence stage, Digitaria sanguinalis” value in the assay with Digitaria sanguinalis (Dose 15 g/ha) is listed as 5 (Level 5: growth control rate is above 85%). The “Weeding effect in post-emergence stage, Setaria viridis” value in the assay on Setaria viridis (Dose 15 g/ha) is on record as 5 (Level 5: growth control rate is above 85%). The “Weeding effect in post-emergence stage, Eleusine indica” value in the assay with Eleusine indica (Dose 15 g/ha) was 5 (Level 5: growth control rate is above 85%). Moreover, in the assay with Alopecurus japonicus (Dose 15 g/ha), the “Weeding effect in post-emergence stage, Alopecurus japonicus” value was 5 (Level 5: growth control rate is above 85%). For the same compound, the “Weeding effect in post-emergence stage, Echinochloa crusgalli” value in the assay with Echinochloa crusgalli (Dose 15 g/ha) was 5 (Level 5: growth control rate is above 85%).
Take `CC(O/N=C/c1cc(-n2c(=O)n(C)c(=S)n(C)c2=O)c(F)cc1Cl)C(=O)OCC1CCCO1` (stereo not drawn) [Compound 24]: the “Weeding effect in post-emergence stage, Abutilon theophrasti” value in the assay with Abutilon theophrasti (Dose 15 g/ha) is given as 5 (Level 5: growth control rate is above 85%). Also, in the assay with Digitaria sanguinalis (Dose 15 g/ha), the “Weeding effect in post-emergence stage, Digitaria sanguinalis” value was 5 (Level 5: growth control rate is above 85%). In addition, the “Weeding effect in post-emergence stage, Setaria viridis” value with Setaria viridis (Dose 15 g/ha) is recorded as 5 (Level 5: growth control rate is above 85%). In addition, the “Weeding effect in post-emergence stage, Eleusine indica” value in the assay with Eleusine indica (Dose 15 g/ha) is on record as 5 (Level 5: growth control rate is above 85%). The “Weeding effect in post-emergence stage, Alopecurus japonicus” value in the assay with Alopecurus japonicus (Dose 15 g/ha) is given as 5 (Level 5: growth control rate is above 85%). Also, in the assay with Echinochloa crusgalli (Dose 15 g/ha), the “Weeding effect in post-emergence stage, Echinochloa crusgalli” value is reported as 5 (Level 5: growth control rate is above 85%).
`CC(O/N=C/c1cc(-n2c(=O)n(C)c(=S)n(C)c2=O)c(F)cc1Cl)C(=O)OCc1ccco1` (stereo not drawn) [Compound 26]: in the assay on Abutilon theophrasti (Dose 15 g/ha), the “Weeding effect in post-emergence stage, Abutilon theophrasti” value is 5 (Level 5: growth control rate is above 85%). In addition, the “Weeding effect in post-emergence stage, Digitaria sanguinalis” value in the assay with Digitaria sanguinalis (Dose 15 g/ha) is listed as 5 (Level 5: growth control rate is above 85%). Moreover, in the assay with Setaria viridis (Dose 15 g/ha), the “Weeding effect in post-emergence stage, Setaria viridis” value is 5 (Level 5: growth control rate is above 85%). Also, the “Weeding effect in post-emergence stage, Eleusine indica” value in the assay with Eleusine indica (Dose 15 g/ha) is 5 (Level 5: growth control rate is above 85%). In addition, the “Weeding effect in post-emergence stage, Alopecurus japonicus” value in the assay with Alopecurus japonicus (Dose 15 g/ha) was 5 (Level 5: growth control rate is above 85%). The “Weeding effect in post-emergence stage, Echinochloa crusgalli” value in the assay on Echinochloa crusgalli (Dose 15 g/ha) was 5 (Level 5: growth control rate is above 85%).
As to `CC(O/N=C/c1cc(-n2c(=O)n(C)c(=S)n(C)c2=O)c(F)cc1Cl)C(=O)OCc1ccccc1` (stereo not drawn) [Compound 42], the “Weeding effect in post-emergence stage, Abutilon theophrasti” value with Abutilon theophrasti (Dose 15 g/ha) is 5 (Level 5: growth control rate is above 85%). In addition, the “Weeding effect in post-emergence stage, Digitaria sanguinalis” value in the assay with Digitaria sanguinalis (Dose 15 g/ha) is 5 (Level 5: growth control rate is above 85%). The “Weeding effect in post-emergence stage, Setaria viridis” value in the assay on Setaria viridis (Dose 15 g/ha) is reported as 5 (Level 5: growth control rate is above 85%). Besides, the “Weeding effect in post-emergence stage, Eleusine indica” value in the assay on Eleusine indica (Dose 15 g/ha) is listed as 5 (Level 5: growth control rate is above 85%). Also, the “Weeding effect in post-emergence stage, Alopecurus japonicus” value in the assay with Alopecurus japonicus (Dose 15 g/ha) was 4 (Level 4: growth control rate is greater than or equal to 60% and less than 85%). In the assay with Echinochloa crusgalli (Dose 15 g/ha), the “Weeding effect in post-emergence stage, Echinochloa crusgalli” value is 5 (Level 5: growth control rate is above 85%).
For the compound `CC(O/N=C/c1cc(-n2c(=O)n(C)c(=S)n(C)c2=O)c(F)cc1Cl)C(=O)OCc1ccncc1` (stereo not drawn) [Compound 60], the “Weeding effect in post-emergence stage, Abutilon theophrasti” value in the assay with Abutilon theophrasti (Dose 15 g/ha) is 5 (Level 5: growth control rate is above 85%). Also, the “Weeding effect in post-emergence stage, Digitaria sanguinalis” value in the assay with Digitaria sanguinalis (Dose 15 g/ha) is recorded as 5 (Level 5: growth control rate is above 85%). Also, in the assay on Setaria viridis (Dose 15 g/ha), the “Weeding effect in post-emergence stage, Setaria viridis” value was 5 (Level 5: growth control rate is above 85%). In addition, the “Weeding effect in post-emergence stage, Eleusine indica” value in the assay with Eleusine indica (Dose 15 g/ha) was 5 (Level 5: growth control rate is above 85%). Besides, in the assay with Alopecurus japonicus (Dose 15 g/ha), the “Weeding effect in post-emergence stage, Alopecurus japonicus” value was 4 (Level 4: growth control rate is greater than or equal to 60% and less than 85%). For the same compound, the “Weeding effect in post-emergence stage, Echinochloa crusgalli” value in the assay with Echinochloa crusgalli (Dose 15 g/ha) is on record as 5 (Level 5: growth control rate is above 85%).
